{"source": "paper PMC6709486", "about": "“Safety, Tolerability, Pharmacokinetics, and Drug Interaction Potential of SPR741, an Intravenous Potentiator, after Single and Multiple Ascending Doses and When Combined with β-Lactam Antibiotics in Healthy Subjects” (Antimicrobial Agents and Chemotherapy, 2019)", "test": "clinical", "details": "human, in vivo, iv, 400 mg; for AUC(0-inf): AUC0-inf", "from_the_text": "The drug-drug interaction study was a phase 1, single-center, multiarm, open-label, randomized, three-period crossover study. The objective was to evaluate the DDI potential and the PK of SPR741 coadministered with each of three partner antibiotics as well as the DDI and PK effects of three partner antibiotics administered alone and with SPR741. The study comprised a screening phase (day −28 to day −2), three treatment arms (day 1 to day 8 for each arm), and an end-of-study follow-up (day 9). Each subject participated in screening, one treatment arm, and the end-of-study follow-up. The maximum duration of participation for each subject was approximately 37 days. Subjects remained in the clinical unit from the day before dosing (day −1) to 24 h after the third and last dose period (day 8).\nThe DDI study consisted of three treatment arms with three dosing periods in each arm (days 1, 4, and 7). In random sequence, subjects received a single dose of study treatments with a 2-day washout period between each assigned treatment. In treatment arm 1, subjects received 400 mg of SPR741 i.v. over 1 h, 400 mg of SPR741 i.v. over 1 h plus 1.0 g of ceftazidime i.v. over 1 h, and 1.0 g of ceftazidime i.v. over 1 h. In treatment arm 2, subjects received 400 mg of SPR741 i.v. over 1 h, 400 mg of SPR741 i.v. over 1 h plus 4.5 g of piperacillin-tazobactam i.v. over 1 h, and 4.5 g of piperacillin-tazobactam i.v. over 1 h.\nFor both studies, maximum plasma concentration (Cmax), area under the concentration-time curve from time zero to the last measurable time point (AUC0-t), area under the concentration-time curve from time zero to infinity (AUC0-inf), time to maximum concentration (Tmax), terminal elimination rate constant (kel), terminal half-life (t1/2), terminal clearance (CL), and volume of distribution (V) were determined. PK parameters were determined using WinNonlin Phoenix, version 6.4.\nFor the SAD phase, blood samples were obtained predose (within 10 min), at 30 min following the start of infusion, at the end of infusion, and at 75, 90, 105, 120, and 150 min and 3, 4, 5, 6, 8, 10, 12, and 24 h following the start of infusion. For the MAD phase, blood was obtained predose (within 10 min), at 30 min following the start of infusion, at the end of infusion, and at 90 and 150 min and 3, 4, 5, 6, and 8 h following the start of infusion (day 1, first dose; day 14, last dose). Five additional blood samples were obtained at 10, 12, 24, 36, and 48 h following the start of infusion of the last dose (morning of day 14). For the DDI study, blood samples for determining plasma concentrations of SPR741 and each partner antibiotic were obtained predose (within −10 min), at 30 min, and at 1 h, 1 h 15 min, 1 h 30 min, 1 h 45 min, 2, 4, 8, 12, and 24 h postdose for each dose period. Plasma samples for drug concentration measurements were analyzed using a validated high-pressure liquid chromatography tandem mass spectrometry (HPLC-MS/MS) method. In brief, samples were spiked with a stable isotope-labeled internal standard and then extracted by protein precipitation before injection onto the HPLC-MS/MS system. Unique transitions were monitored for all test articles and internal standards. Plasma concentrations below the limit of quantitation were reported as 0.\nIn the SAD/MAD study, geometric means were calculated for AUC and Cmax values. Analyses using linear models were performed to assess dose proportionality (both single dose and multiple dose), time dependence, accumulation, and attainment of steady state (multiple dose). Dose proportionality was assessed using linear models for the SAD and MAD cohorts separately. […] Point estimates and 90% confidence intervals (CIs), using the residual mean square error obtained from the ANOVA, were constructed for the comparisons between treatments. The point and CI estimates were back-transformed to give estimates of the ratios (percentages) of the geometric LSMs and corresponding 90% CIs.", "key": {"[1]": {"details": "geometric LSM, reference treatment"}}, "note": "Peptide text beside a SMILES is read from it."}
{"smiles": "CC(=O)N[C@H](C(=O)N[C@H](CO)C(=O)N[C@H]1CCNC(=O)[C@H]([C@@H](C)O)NC(=O)[C@H](CCN)NC(=O)[C@H](CCN)NC(=O)[C@H](CC(C)C)NC(=O)[C@@H](Cc2ccccc2)NC(=O)[C@H](CCN)NC1=O)[C@@H](C)O", "note": "[SPR741] (HELM PEPTIDE1{[ac].T.[dS].[Dab].[Dab].[dF].L.[Dab].[Dab].T}$PEPTIDE1,PEPTIDE1,4:R3-10:R2$$$V2.0)", "values": [{"measurement": "AUC0-inf, geometric LSM, reference treatment", "value": "96,800 h·ng/ml"}, {"measurement": "Tmax", "value": 1, "unit": "h"}, {"measurement": "AUC(0-inf)", "value": 90300, "unit": "ng·h/mL"}, {"measurement": "AUC(0-inf)", "setting": "[1]", "value": 79300, "unit": "ng·h/mL"}, {"measurement": "AUC0-t", "setting": "AUC0-t", "value": 89700, "unit": "ng·h/mL"}, {"measurement": "AUC", "setting": "AUC0-τ, geometric LSM, reference treatment", "value": 78700, "unit": "ng·h/mL"}, {"measurement": "clearance", "setting": "CL", "value": 75, "unit": "mL/min"}, {"measurement": "Cmax", "value": 28100, "unit": "ng/mL"}, {"measurement": "Cmax", "setting": "[1]", "value": 28800, "unit": "ng/mL"}, {"measurement": "Vd", "setting": "V", "value": 20.6, "unit": "L"}, {"measurement": "half-life", "setting": "t1/2", "value": 3.2, "unit": "h"}]}
